The values below are quoted from earlier work in patent US20240310266A1, “BIOMARKERS FOR CANCER AND METHODS OF USE THEREOF” (Novartis AG, priority 2021, published 2024).

Molecules are shown by their SMILES.

For this series the following is noted: rats.

In the case of `CC(C)(C)c1nc(-c2cccc(NS(=O)(=O)c3c(F)cccc3F)c2F)c(-c2ccnc(N)n2)s1` [dabrafenib, N-{3-[5-(2-aminopyrimidin-4-yl)-2-tert-butyl-1,3-thiazol-4-yl]-2-fluorophenyl}-2,6-difluorobenzenesulfonamide], the proliferative skin lesions result was “proliferative skin lesions observed”.
